Measured values from patent US7273458B2, “Method of applying acoustic energy effective to alter transport or cell viability” (Georgia Tech Research Corporation, priority 1998, dated 2007).

Tested on: Prostate tumor cells (DU-145)
Test: Ultrasound-mediated uptake of fluorescent markers into prostate tumor cells (flow cytometry)
Assay type: cell-based
Conditions: for time decay constant τ of average uptake versus time of addition after exposure: exponential fit, calcein added ≧15 s after exposure
Procedure: Prostate tumor cells (DU-145) were suspended in RPMI-1640 medium with 10% fetal bovine serum at 5×10^5 cells/ml. For each experimental condition, a 3 ml polypropylene tube was filled with the cell suspension at room temperature (22±2° C.) and the top of the tube was closed without entrapping any air bubbles. The cells were exposed to ultrasound at 24 kHz in a chamber that consisted of a cylindrical piezoelectric transducer sandwiched between two PVC pipes and filled with deionized and degassed water at room temperature. Pressure, pulse length, duty cycle, and the total exposure time of ultrasound exposure were controlled. Acoustic spectra during exposure were collected using a hydrophone placed in the exposure chamber. Calcein, a green-fluorescent membrane-impermeant marker, dissolved in saline, was added to the suspensions either before or at various times after exposure at a final concentration of 10 μM. Other fluorescent markers, with different sizes, were also used to determine membrane permeability. The cells were kept at room temperature for 15 minutes after exposure, and then placed on ice until they were centrifuged and resuspended in phosphate-buffered saline with 0.1 mg/ml of propidium iodide (a red-fluorescence viability stain). Cell-by-cell fluorescence was measured using flow cytometry, and 6 μm green-fluorescence microspheres were added to each sample at a constant concentration to provide an internal volumetric standard for determining concentrations of viable cells.

Compound	uptake when added after ultrasound exposure (lifetime of membrane disruptions) (calcein added at different times after exposure)	average uptake when added 15 sec. after exposure compared to added before exposure (examined pressures 5.3, 7.1 and 8.0 atm)	time decay constant τ of average uptake versus time of addition after exposure (incident pressure 5.3 atm) [s]	time decay constant τ of average uptake versus time of addition after exposure (incident pressure 7.1 atm) [s]	time decay constant τ of average uptake versus time of addition after exposure (incident pressure 8.0 atm) [s]	average cellular calcein uptake, plateau (ultrasound 24 kHz, increasing peak incident pressure, 20 pulses of 0.1 sec, 10% duty cycle, calcein 10 μM added before exposure)	average uptake of molecules per exposed cell, less than that of calcein (same external concentration (10 μM), exposure conditions of FIG. 7, P=8.0 atm)
O=C(O)CN(CC(=O)O)Cc1cc2c(cc1O)Oc1cc(O)c(CN(CC(=O)O)CC(=O)O)cc1C21OC(=O)c2ccccc21 [calcein]	significant uptake occurred for up to two minutes after exposure	about 50 % less	78	66	56	20-25 % of external calcein concentration	
bovine serum albumen [BSA]							about 60 % less
